Assay results: patent US20240043420A1, “7-AZAINDOLE COMPOUNDS FOR INHIBITION OF BCR-ABL TYROSINE KINASES” (EnLiven Therapeutics, Inc., priority 2020, published 2024)

Experiments:
pCRKL in K562 cells = test: pCRKL ELISA assay in K562 cells; type: cell-based; conditions: Homo sapiens, 1.5 h, 90 minutes incubation, read-out: PCRKL ELISA, Cell Line IC50 (nM) K562
Experimental: (§1) K562 or Ba/F3 ABL T315I cells (2.0*10^5 cells/100 μl/well) were seeded in 96 well (Corning, cat #3799). Compounds were dissolved in DMSO, serially diluted in DMSO and then were added, mixed, and incubated for 90 minutes at 37° C., 5% CO2. Following the 90-minute incubation, plates were centrifuged for 5 min at 3000 RPM and supernatant was removed from each well. Cells were washed 3 times with 150 μl PBS prior to addition of 100 μl cell RIPA lysis buffer (Boston BioProducts, cat #BP-115D) supplied with 1×complete ULTRA cocktail inhibitor (Roche, 05892791001) and 1×PhosSTOP Phosphatase Inhibitor Cocktail Tablets (Roche, 04906837001). Cells were incubated with lysis buffer for 1 hour at 4° C. prior to storage at −80 C.
(§2) A capture antibody able to detect phosphorylated and non-phosphorylated CRKL (R&D Systems, cat #AF5127) was added to Meso Scale Discovery (MSD) standard bind plates (MSD, cat #L15XA-3) at 5 ug/mL and incubated at 4° C. overnight. The next day, plates were washed with PBS+0.05% Tween20 (PBST) and 150 μl of 5% BSA blocking solution was added for 1 hour at room temperature with shaking. Plates were washed with PBST. Lysates were thawed and 30 μl of lysate was added to the MSD plates and incubated for 2 hours at room temperature with shaking. MSD plates were washed with PBST and 30 μl of a detection antibody that binds phosphorylated pCRKL (R&D Systems, cat #MAB6910) was added at 1 μg/mL to each well. Plates were incubated for 1 hour at room temperature with shaking. Plates were washed with PBST prior to addition of 30 μl of a sulfo tagged goat anti mouse detection antibody (MSD cat #R32AC-1). Plates were incubated for 1 hour at room temperature with shaking. Plates were washed with PBST prior to addition of 150 ul of 1×MSD read buffer T (MSD, cat 4R92TC-2). Electrochemiluminescence (ECLU) was read on an MSD plate reader (Meso Scale Discovery). The remaining activity by calculated as follows: 00 Relative activity=100×(ELCUsample−ECLULC)/(ECLUHC−ECLULC). The low and high controls (LC/HC) are generated from lysate from wells without cells or with cells treated with 0.1% DMSO, respectively. IC50 values were calculated using XLFit software using a nonlinear regression model with a sigmoidal dose response and are shown in Table 4 and Table 5 below.

ABL1 = molecular target: T1, ABL1 (Homo sapiens, UniProt P00519); test: Luminescence-based ABL kinase assay (ADP-Glo, 300 μM ATP); type: biochemical
T1 construct: purchased Carna Biosciences
In short: (§3)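 ABL1 (3.325 nM in the enzyme solution) was preincubated with compound for 30 min at RT in HEPES pH 7.5 buffer with MgCl2, EGTA, DTT, BSA and Brij-35. Adding Peptide 2 and ATP (6 μM and 1.2 mM in the start solution) began a 90 min RT reaction. ADP-Glo luminescence gave % activity and IC50.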

K562 cells = test: K562 cell proliferation assay (CellTiter-Glo); type: cell-based; conditions: Homo sapiens, K562, 72 h, CellTiter-Glo viability, read-out: Cell Line (IC50, nM) K562
In short: (§4)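 Cells in IMDM/10% FBS seeded at 2,000 (K562) or 1,500 (HL60) per well, exposed to serially diluted compounds for 72 h at 37 °C, 5% CO2. Viability by CellTiter-Glo luminescence, normalized between DMSO (high) and cell-free media (low) controls.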

[1] = tested on: pCRKL in Ba/F3 ABL1 (T315I) cells; test: pCRKL ELISA assay in Ba/F3 ABL T315I cells; type: cell-based; conditions: Mus musculus, BaF3, 1.5 h, 90 minutes incubation, read-out: pCRKL ELISA, Cell Line IC50 (nM) Ba/F3 ABL1 (T315I)
Experimental: as §1, §2

ABL1 (T315I) = ABL1 (T315I) (Homo sapiens, UniProt P00519, T315I); test: Luminescence-based ABL kinase assay (ADP-Glo, 300 μM ATP), T315I mutant; type: biochemical
In short: as §3

HL60 cells = test: HL60 cell proliferation assay (CellTiter-Glo); type: cell-based; conditions: Homo sapiens, HL-60, 72 h, CellTiter-Glo viability, read-out: Cell Line (IC50, nM) HL60
In short: as §4

| Compound | IC50 (pCRKL in K562 cells) [nM] | IC50 (ABL1) [nM] | IC50 (K562 cells) [nM] | IC50 [1] [nM] | IC50 (ABL1 (T315I)) [nM] | IC50 (HL60 cells) [nM] |
| --- | --- | --- | --- | --- | --- | --- |
| COc1cccc(OC)c1-c1c[nH]c2nc(NC(=O)C3CC3CN3CCNCC3)ccc12 (single isomer, unassigned) [Example S150, Enantiomer 1, N-[3-(2,6-dimethoxyphenyl)-1H-pyrrolo[2,3-b]pyridin-6-yl]-2-(piperazin-1-ylmethyl)cyclopropane-1-carboxamide] | 453 | 5.42 | 40.5 | 1460 | 1.73 |  |
| COc1ncccc1-c1c[nH]c2nc(NC(=O)[C@@H]3C[C@@H]3F)ccc12 [Compound 27, (1S,2S)-2-fluoro-N-(3-(2-methoxypyridin-3-yl)-1H-pyrrolo[2,3-b]pyridin-6-yl)cyclopropane-1-carboxamide] | 164 | 29 | 156 | 183 | 20.2 | > 10000 |
| COc1ccccc1-c1n[nH]c2nc(NC(=O)[C@@H]3C[C@@H]3F)ccc12 [Compound 54, (1S,2S)-2-fluoro-N-[3-(2-methoxyphenyl)-1H-pyrazolo[3,4-b]pyridin-6-yl]cyclopropane-1-carboxamide] | 95.8 | 14.3 | 88.4 | 198 | 16.3 | > 10000 |
| COc1cccc(F)c1-c1n[nH]c2nc(NC(=O)[C@@H]3C[C@@H]3F)ccc12 [Compound 66, (1S,2S)-2-fluoro-N-[3-(2-fluoro-6-methoxyphenyl)-1H-pyrazolo[3,4-b]pyridin-6-yl]cyclopropane-1-carboxamide] | 702 | 91.5 | 603 |  | 38.7 | > 10000 |
| COc1ncc(F)cc1-c1n[nH]c2nc(NC(=O)[C@@H]3C[C@@H]3F)ccc12 [Compound 74, (1S,2S)-2-fluoro-N-[3-(5-fluoro-2-methoxypyridin-3-yl)-1H-pyrazolo[3,4-b]pyridin-6-yl]cyclopropane-1-carboxamide] | 572 | 55.6 | 351 |  | 63 | > 10000 |
| COc1ccnc(OC)c1-c1c[nH]c2nc(NC(=O)[C@@H]3C[C@@H]3F)ccc12 [Compound 75, (1S,2S)—N-[3-(2,4-dimethoxypyridin-3-yl)-1H-pyrrolo[2,3-b]pyridin-6-yl]-2-fluorocyclopropane-1-carboxamide] | 86.3 | 15.1 | 54.6 | 162 | 17.6 | > 10000 |
| COc1ncc(F)c(OC)c1-c1c[nH]c2nc(NC(=O)[C@@H]3C[C@@H]3F)ccc12 [Compound 76, (1S,2S)-2-fluoro-N-[3-(5-fluoro-2,4-dimethoxypyridin-3-yl)-1H-pyrrolo[2,3-b]pyridin-6-yl]cyclopropane-1-carboxamide] | 65.4 | 5.14 | 35.8 | 50.1 | 7.38 | > 10000 |
| COc1ncccc1-c1n[nH]c2nc(NC(=O)[C@@H]3C[C@@H]3F)ccc12 [Compound 77, (1S,2S)-2-fluoro-N-[3-(2-methoxypyridin-3-yl)-1H-pyrazolo[3,4-b]pyridin-6-yl]cyclopropane-1-carboxamide] | 1120 | 106 | 727 |  | 137 | > 10000 |
| COc1cc2[nH]ncc2cc1-c1n[nH]c2nc(NC(=O)[C@@H]3C[C@@H]3F)ccc12 [Compound 82, (1S,2S)-2-fluoro-N-[3-(6-methoxy-1H-indazol-5-yl)-1H-pyrazolo[3,4-b]pyridin-6-yl]cyclopropane-1-carboxamide] | 1050 | 13.5 | 437 |  | 20.5 | > 10000 |
| COc1cc2ncsc2cc1-c1c[nH]c2nc(NC(=O)[C@@H]3C[C@@H]3F)ccc12 [Compound 86, (1S,2S)-2-fluoro-N-(3-(5-methoxybenzo[d]thiazol-6-yl)-1H-pyrrolo[2,3-b]pyridin-6-yl)cyclopropane-1-carboxamide] |  | 5.97 | 30.5 | 84.2 | 5.48 | > 10000 |
| COc1c(-c2c[nH]c3nc(NC(=O)[C@@H]4C[C@@H]4F)ccc23)cc(F)c2[nH]cnc12 [Compound 95, (1S,2S)-2-fluoro-N-(3-(7-fluoro-4-methoxy-1H-benzo[d]imidazol-5-yl)-1H-pyrrolo[2,3-b]pyridin-6-yl)cyclopropanecarboxamide] | 656 | 6.32 | 221 | 429 | 2.14 | > 10000 |
| COc1ccc(F)cc1-c1n[nH]c2nc(NC(=O)[C@@H]3C[C@@H]3F)ccc12 [Compound 98, (1S,2S)-2-fluoro-N-[3-(5-fluoro-2-methoxyphenyl)-1H-pyrazolo[3,4-b]pyridin-6-yl]cyclopropane-1-carboxamide] | 174 | 16.4 | 106 | 241 | 12.9 | > 10000 |
| COc1ncc(F)c(OC)c1-c1c[nH]c2nc(NC(=O)NCCN3CCN(C)CC3)ccc12 [Compound 116, 3-[3-(5-fluoro-2,4-dimethoxypyridin-3-yl)-1H-pyrrolo[2,3-b]pyridin-6-yl]-1-[2-(4-methylpiperazin-1-yl)ethyl]urea] |  | 49.4 | 142 | 1060 | 59.3 | > 10000 |
| COc1cccc(OC)c1-c1c[nH]c2nc(NC(=O)NCCN3CCN(C)CC3)ccc12 [Compound 117, 3-[3-(2,6-dimethoxyphenyl)-1H-pyrrolo[2,3-b]pyridin-6-yl]-1-[2-(4-methylpiperazin-1-yl)ethyl]urea] |  | 11.3 | 67.1 | 124 | 9.08 | > 10000 |
| COc1cccc(OC)c1-c1c[nH]c2nc(NC(=O)NCCCN(C)C)ccc12 [Compound 131, 1-[3-(2,6-dimethoxyphenyl)-1H-pyrrolo[2,3-b]pyridin-6-yl]-3-[3-(dimethylamino)propyl]urea] | 272 | 42.7 | 83.3 |  | 28.1 | > 10000 |
| COc1c(-c2c[nH]c3nc(NC(=O)[C@@H]4C[C@@H]4F)ccc23)cc2scnc2c1F [Compound 133, (1S,2S)-2-fluoro-N-[3-(4-fluoro-5-methoxy-1,3-benzothiazol-6-yl)-1H-pyrrolo[2,3-b]pyridin-6-yl]cyclopropane-1-carboxamide] | 278 | 3.57 | 9.36 |  | 6.1 | 4040 |
| COc1cccc(OC)c1-c1c[nH]c2nc(NC(=O)NCCN3CCNCC3)ccc12 [Compound 135, 3-[3-(2,6-dimethoxyphenyl)-1H-pyrrolo[2,3-b]pyridin-6-yl]-1-[2-(piperazin-1-yl)ethyl]urea] | 1210 | 24.9 | 165 |  | 15.8 | > 10000 |
| COc1ccc(F)c(OC)c1-c1c[nH]c2nc(NC(=O)NCCN3CCN(C)CC3)ccc12 [Compound 145, 3-[3-(3-fluoro-2,6-dimethoxyphenyl)-1H-pyrrolo[2,3-b]pyridin-6-yl]-1-[2-(4-methylpiperazin-1-yl)ethyl]urea] | 399 | 51.6 | 120 |  | 44.3 | > 10000 |
